Data: patent publication US20090239841A1, “Diaryl Ureas as CB1 Antagonists” (priority 2004, published 2009)

target: T1, hCB1 (Homo sapiens, UniProt P21554); assay: Agonist-induced GTP binding (GTPγ35S) assay at CB1, Example 8; assay type: biochemical; settings: IC50 at CB1, determined as described in Example 8; read-out: IC50
T1 construct: made in house; host or cells: Sf9 insect cells (baculovirus), P2 membranes
How it was run: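 Antagonism read as inhibition of 1 nM CP55,940-stimulated GTPγ35S ([…]) binding, compounds at 10^−10 to 10^−5 M. Baculovirus-infected Sf9 membranes bearing hCB1 plus G-protein subunits, 60 min room-temperature incubation with 5 μM GDP. Filtration and scintillation counting; data as percent over basal.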

T1 sequence (P21554 whole entry): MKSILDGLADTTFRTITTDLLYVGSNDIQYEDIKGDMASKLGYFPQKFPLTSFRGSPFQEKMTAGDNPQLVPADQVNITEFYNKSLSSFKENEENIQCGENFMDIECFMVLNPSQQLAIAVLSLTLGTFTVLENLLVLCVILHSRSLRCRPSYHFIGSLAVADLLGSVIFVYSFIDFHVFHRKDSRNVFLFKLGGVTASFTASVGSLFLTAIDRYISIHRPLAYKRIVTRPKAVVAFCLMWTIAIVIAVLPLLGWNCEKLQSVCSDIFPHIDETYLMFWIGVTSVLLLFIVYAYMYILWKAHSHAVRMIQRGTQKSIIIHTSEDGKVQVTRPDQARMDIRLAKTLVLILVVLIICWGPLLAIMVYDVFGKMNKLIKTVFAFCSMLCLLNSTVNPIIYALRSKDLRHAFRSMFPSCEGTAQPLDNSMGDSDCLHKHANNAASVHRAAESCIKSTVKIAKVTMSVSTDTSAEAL

**Q.** Cc1ccc(F)cc1NC(=O)Nc1ccc(OC(C)C)cc1 [Compound 698, 1-(5-fluoro-2-methylphenyl)-3-(4-isopropoxyphenyl)urea] was tested. Which IC50 did it give?
**A.** < 2 µM

**Q.** With Cc1ccc(F)c(NC(=O)Nc2cccc(OC(F)F)c2)c1 [Compound 699, 1-[3-(difluoromethoxy)phenyl]-3-(2-fluoro-5-methylphenyl)urea] as the molecule, how does the IC50 read?
**A.** < 2 µM

**Q.** Which IC50 does the source give for Cc1ccc(F)cc1NC(=O)Nc1cccc(OC(F)F)c1 [Compound 700, 1-[3-(difluoromethoxy)phenyl]-3-(5-fluoro-2-methylphenyl)urea] here?
**A.** < 2 µM

**Q.** COc1ccc(NC(=O)Nc2cc(F)cc(F)c2)cc1 [Compound 701, 1-(3,5-difluorophenyl)-3-(4-methoxyphenyl)urea] was tested. Which IC50 did it give?
**A.** < 2 µM

**Q.** CCOc1cccc(NC(=O)Nc2cc(F)cc(F)c2)c1 [Compound 702, 1-(3,5-difluorophenyl)-3-(3-ethoxyphenyl)urea] was tested. Which IC50 did it give?
**A.** < 2 µM

**Q.** For CCOc1cccc(NC(=O)Nc2ccc(C)cc2C)c1 [Compound 703, 1-(2,4-dimethylphenyl)-3-(3-ethoxyphenyl)urea], which IC50 is on record?
**A.** < 2 µM

**Q.** For CCOc1ccc(NC(=O)Nc2cc(C)cc(C)c2)cc1 [Compound 704, 1-(3,5-dimethylphenyl)-3-(4-ethoxyphenyl)urea], which IC50 is on record?
**A.** < 2 µM

**Q.** For COCc1ccc(NC(=O)Nc2cc(F)cc(F)c2)cc1 [Compound 705, 1-(3,5-difluorophenyl)-3-[4-(methoxymethyl)phenyl]urea], which IC50 is on record?
**A.** < 2 µM

**Q.** CCCOc1ccc(NC(=O)Nc2cc(C)cc(C)c2)cc1 [Compound 706, 1-(3,5-dimethylphenyl)-3-(4-propoxyphenyl)urea] was tested. Which IC50 did it give?
**A.** < 2 µM

**Q.** Cc1cc(C)cc(NC(=O)Nc2cccc(OC(C)C)c2)c1 [Compound 707, 1-(3,5-dimethylphenyl)-3-(3-isopropoxyphenyl)urea] was tested. Which IC50 did it give?
**A.** < 2 µM

**Q.** Which IC50 does the source give for CC(C)Oc1cccc(NC(=O)Nc2cc(F)cc(F)c2)c1 [Compound 708, 1-(3,5-difluorophenyl)-3-(3-isopropoxyphenyl)urea] here?
**A.** < 2 µM

**Q.** With CC(C)Oc1ccc(NC(=O)Nc2cc(F)cc(F)c2)cc1 [Compound 709, 1-(3,5-difluorophenyl)-3-(4-isopropoxyphenyl)urea] as the molecule, how does the IC50 read?
**A.** < 2 µM

**Q.** How did the IC50 turn out when Cc1cc(C)cc(NC(=O)Nc2cccc(OC(F)F)c2)c1 [Compound 710, 1-[3-(difluoromethoxy)phenyl]-3-(3,5-dimethylphenyl)urea] was run?
**A.** < 2 µM

**Q.** For Cc1ccc(NC(=O)Nc2cccc(OC(F)F)c2)c(C)c1 [Compound 711, 1-[3-(difluoromethoxy)phenyl]-3-(2,4-dimethylphenyl)urea], which IC50 is on record?
**A.** < 2 µM

**Q.** COC(=O)c1cccc(NC(=O)Nc2ccc(CC#N)cc2)c1 [Compound 712, methyl 3-[({[4-(cyanomethyl)phenyl]amino}carbonyl)amino]benzoate] was tested. Which IC50 did it give?
**A.** < 2 µM

**Q.** With COC(=O)c1ccc(NC(=O)Nc2ccc(CC#N)cc2)cc1 [Compound 713, methyl 4-[({[4-(cyanomethyl)phenyl]amino}carbonyl)amino]benzoate] as the molecule, how does the IC50 read?
**A.** < 2 µM

**Q.** With CCOC(=O)c1cccc(NC(=O)Nc2ccc(CC#N)cc2)c1 [Compound 714, ethyl 3-[({[4-(cyanomethyl)phenyl]amino}carbonyl)amino)benzoate] as the molecule, how does the IC50 read?
**A.** < 2 µM

**Q.** For CCOC(=O)c1ccc(NC(=O)Nc2ccc(CC#N)cc2)cc1 [Compound 715, ethyl 4-[({[4-(cyanomethyl)phenyl]amino}carbonyl)amino]benzoate], which IC50 is on record?
**A.** < 2 µM

**Q.** For COC(=O)c1cccc(NC(=O)Nc2ccc(OCC#N)cc2)c1 [Compound 716, methyl 3-[({[4-(cyanomethoxy)phenyl]amino}carbonyl)amino] benzoate], which IC50 is on record?
**A.** < 2 µM

**Q.** How did the IC50 turn out when COC(=O)c1ccc(NC(=O)Nc2ccc(OCC#N)cc2)cc1 [Compound 717, methyl 4-[({[4-(cyanomethoxy)phenyl]amino}carbonyl)amino] benzoate] was run?
**A.** < 2 µM

**Q.** For CCOC(=O)c1cccc(NC(=O)Nc2ccc(OCC#N)cc2)c1 [Compound 718, ethyl 3-[({[4-(cyanomethoxy)phenyl]amino}carbonyl)amino]benzoate], which IC50 is on record?
**A.** < 2 µM
